Test results taken from ChEMBL document CHEMBL4622865, “Sulfonamide-based 4-anilinoquinoline derivatives as novel dual Aurora kinase (AURKA/B) inhibitors: Synthesis, biological evaluation and in silico insights” (Bioorg Med Chem, 2020).

Assays:
Aurora kinase B [1] = target: T1, Aurora kinase B (Homo sapiens, UniProt Q96GD4); test: Inhibition of human Aurora B using [H-LRRASLG] as substrate in presence of [gamma-33P]-ATP incubated for 2 hrs by hotspot kinase assay
Aurora kinase B [2] = target: T1, Aurora kinase B; test: Inhibition of human Aurora B using [H-LRRASLG] as substrate at 20 uM in presence of [gamma-33P]-ATP incubated for 2 hrs by hotspot kinase assay relative to control
HCT-116 = test: Antitumor activity against human HCT116 cells assessed as growth inhibition at 10-'5 M incubated for 48 hrs by SRB assay relative to control; assay type: functional
BT-549 = test: Antitumor activity against human BT549 cells assessed as growth inhibition at 10-'5 M incubated for 48 hrs by SRB assay relative to control; assay type: functional
[3] = target: T2, Aurora kinase A (Homo sapiens) (UniProt O14965); test: Inhibition of human Aurora A using [H-LRRASLG] as substrate at 20 uM in presence of [gamma-33P]-ATP incubated for 2 hrs by hotspot kinase assay relative to control
T2 sequence (whole entry): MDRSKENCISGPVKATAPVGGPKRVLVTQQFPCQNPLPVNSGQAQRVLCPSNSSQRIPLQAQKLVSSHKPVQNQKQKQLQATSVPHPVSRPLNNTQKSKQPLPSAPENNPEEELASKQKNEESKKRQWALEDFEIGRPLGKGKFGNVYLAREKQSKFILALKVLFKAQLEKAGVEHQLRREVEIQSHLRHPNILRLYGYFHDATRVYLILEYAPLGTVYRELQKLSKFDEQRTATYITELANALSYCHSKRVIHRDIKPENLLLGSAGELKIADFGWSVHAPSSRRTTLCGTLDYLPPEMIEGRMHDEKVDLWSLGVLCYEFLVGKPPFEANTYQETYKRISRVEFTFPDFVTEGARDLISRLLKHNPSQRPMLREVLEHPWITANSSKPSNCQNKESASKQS

SNB-75 = test: Antitumor activity against human SNB75 cells assessed as growth inhibition at 10-'5 M incubated for 48 hrs by SRB assay relative to control; assay type: functional
CAKI-1 = test: Antitumor activity against human CAKI-1 cells assessed as growth inhibition at 10-'5 M incubated for 48 hrs by SRB assay relative to control; assay type: functional
UO-31 = test: Antitumor activity against human UO31 cells assessed as growth inhibition at 10-'5 M incubated for 48 hrs by SRB assay relative to control; assay type: functional
Aurora kinase A = target: T3, Aurora kinase A (Homo sapiens, UniProt O14965); test: Inhibition of human Aurora A using [H-LRRASLG] as substrate in presence of [gamma-33P]-ATP incubated for 2 hrs by hotspot kinase assay
T3 sequence (O14965 whole entry): T2 sequence (whole entry)

A498 = test: Antitumor activity against human A498 cells assessed as growth inhibition at 10-'5 M incubated for 48 hrs by SRB assay relative to control; assay type: functional
ACHN = test: Antitumor activity against human ACHN cells assessed as growth inhibition at 10-'5 M incubated for 48 hrs by SRB assay relative to control; assay type: functional
SF-268 = test: Antitumor activity against human SF268 cells assessed as growth inhibition at 10-'5 M incubated for 48 hrs by SRB assay relative to control; assay type: functional
T47D = test: Antitumor activity against human T47D cells assessed as growth inhibition at 10-'5 M incubated for 48 hrs by SRB assay relative to control; assay type: functional
NCI-H522 = test: Antitumor activity against human NCI-H522 cells assessed as growth inhibition at 10-'5 M incubated for 48 hrs by SRB assay relative to control; assay type: functional
NCI/ADR-RES = test: Antitumor activity against human NCI-ADR-RES cells assessed as growth inhibition at 10-'5 M incubated for 48 hrs by SRB assay relative to control; assay type: functional
MCF7 = test: Antitumor activity against human MCF7 cells assessed as growth inhibition at 10-'5 M incubated for 48 hrs by SRB assay relative to control; assay type: functional
PC-3 = test: Antitumor activity against human PC3 cells assessed as growth inhibition at 10-'5 M incubated for 48 hrs by SRB assay relative to control; assay type: functional
HT-29 = test: Antitumor activity against human HT-29 cells assessed as growth inhibition at 10-'5 M incubated for 48 hrs by SRB assay relative to control; assay type: functional
786-0 = test: Antitumor activity against human 786-O cells assessed as growth inhibition at 10-'5 M incubated for 48 hrs by SRB assay relative to control; assay type: functional
UACC-62 = test: Antitumor activity against human UACC62 cells assessed as growth inhibition at 10-'5 M incubated for 48 hrs by SRB assay relative to control; assay type: functional
HOP-92 = test: Antitumor activity against human HOP92 cells assessed as growth inhibition at 10-'5 M incubated for 48 hrs by SRB assay relative to control; assay type: functional
SK-MEL-5 = test: Antitumor activity against human SK-MEL-5 cells assessed as growth inhibition at 10-'5 M incubated for 48 hrs by SRB assay relative to control; assay type: functional
KM12 = test: Antitumor activity against human KM12 cells assessed as growth inhibition at 10-'5 M incubated for 48 hrs by SRB assay relative to control; assay type: functional
[4] = Antitumor activity against human […] cells assessed as growth inhibition at 10-'5 M incubated for 48 hrs by SRB assay relative to control; assay type: functional
RXF 393 = test: Antitumor activity against human RXF393 cells assessed as growth inhibition at 10-'5 M incubated for 48 hrs by SRB assay relative to control; assay type: functional
SN12C = test: Antitumor activity against human SN12C cells assessed as growth inhibition at 10-'5 M incubated for 48 hrs by SRB assay relative to control; assay type: functional
K562 = test: Antitumor activity against human K562 cells assessed as growth inhibition at 10^-5 M incubated for 48 hrs by SRB assay relative to control; assay type: functional; settings: K562, 48 h, read-out: GI
HCT-15 = test: Antitumor activity against human HCT15 cells assessed as growth inhibition at 10-'5 M incubated for 48 hrs by SRB assay relative to control; assay type: functional
LOX IMVI = test: Antitumor activity against human LOXIMVI cells assessed as growth inhibition at 10-'5 M incubated for 48 hrs by SRB assay relative to control; assay type: functional
SNB-19 = test: Antitumor activity against human SNB19 cells assessed as growth inhibition at 10-'5 M incubated for 48 hrs by SRB assay relative to control; assay type: functional
SR = test: Antitumor activity against human SR cells assessed as growth inhibition at 10-'5 M incubated for 48 hrs by SRB assay relative to control; assay type: functional
SK-OV-3 = test: Antitumor activity against human SKOV3 cells assessed as growth inhibition at 10-'5 M incubated for 48 hrs by SRB assay relative to control; assay type: functional
[5] = target: Serine/threonine-protein kinase VRK2 (Homo sapiens) (UniProt Q86Y07); test: Inhibition of human VRK2 using casein as substrate at 20 uM in presence of [gamma-33P]-ATP incubated for 2 hrs by hotspot kinase assay relative to control
Chain of Serine/threonine-protein kinase VRK2 (Homo sapiens) (Q86Y07 whole entry): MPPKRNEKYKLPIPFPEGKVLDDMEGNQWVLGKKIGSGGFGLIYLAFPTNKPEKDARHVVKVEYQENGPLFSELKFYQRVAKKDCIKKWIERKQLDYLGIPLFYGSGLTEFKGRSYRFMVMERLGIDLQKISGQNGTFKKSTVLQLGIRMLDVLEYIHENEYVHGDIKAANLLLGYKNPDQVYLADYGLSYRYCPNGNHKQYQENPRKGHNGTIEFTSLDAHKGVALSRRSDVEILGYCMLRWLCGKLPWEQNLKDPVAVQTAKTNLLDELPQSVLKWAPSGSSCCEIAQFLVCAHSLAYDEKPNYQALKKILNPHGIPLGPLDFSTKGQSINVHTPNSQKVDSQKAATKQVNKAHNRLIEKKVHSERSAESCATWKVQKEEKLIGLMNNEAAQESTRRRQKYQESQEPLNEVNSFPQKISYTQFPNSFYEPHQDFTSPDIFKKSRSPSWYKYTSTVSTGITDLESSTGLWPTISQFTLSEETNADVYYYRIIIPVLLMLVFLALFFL

[6] = target: Calcium/calmodulin-dependent protein kinase kinase 2 (Homo sapiens) (UniProt Q96RR4); test: Inhibition of human CAMKK2 using MBP as substrate at 20 uM in presence of [gamma-33P]-ATP incubated for 2 hrs by hotspot kinase assay relative to control
Chain of Calcium/calmodulin-dependent protein kinase kinase 2 (Homo sapiens) (Q96RR4 2-588 limits assumed): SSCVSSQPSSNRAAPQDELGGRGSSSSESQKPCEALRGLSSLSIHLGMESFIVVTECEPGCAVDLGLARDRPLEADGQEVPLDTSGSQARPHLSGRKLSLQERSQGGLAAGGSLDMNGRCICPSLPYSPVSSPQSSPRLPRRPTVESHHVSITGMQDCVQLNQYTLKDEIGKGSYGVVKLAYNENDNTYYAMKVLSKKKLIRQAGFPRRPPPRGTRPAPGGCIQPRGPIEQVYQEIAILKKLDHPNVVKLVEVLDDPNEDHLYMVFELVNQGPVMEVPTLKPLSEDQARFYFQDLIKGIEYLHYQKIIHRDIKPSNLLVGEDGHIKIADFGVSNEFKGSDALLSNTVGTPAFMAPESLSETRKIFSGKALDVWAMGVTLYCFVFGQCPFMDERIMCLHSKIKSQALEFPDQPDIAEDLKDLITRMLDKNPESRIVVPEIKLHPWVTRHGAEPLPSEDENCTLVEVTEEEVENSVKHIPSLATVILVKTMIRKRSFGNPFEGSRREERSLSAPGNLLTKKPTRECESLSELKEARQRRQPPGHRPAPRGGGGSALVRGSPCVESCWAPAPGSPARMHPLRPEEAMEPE

[7] = target: Dual specificity testis-specific protein kinase 1 (Homo sapiens) (UniProt Q15569); test: Inhibition of human TESK1 using cofilin as substrate at 20 uM in presence of [gamma-33P]-ATP incubated for 2 hrs by hotspot kinase assay relative to control
Chain of Dual specificity testis-specific protein kinase 1 (Homo sapiens) (Q15569 whole entry, looked up): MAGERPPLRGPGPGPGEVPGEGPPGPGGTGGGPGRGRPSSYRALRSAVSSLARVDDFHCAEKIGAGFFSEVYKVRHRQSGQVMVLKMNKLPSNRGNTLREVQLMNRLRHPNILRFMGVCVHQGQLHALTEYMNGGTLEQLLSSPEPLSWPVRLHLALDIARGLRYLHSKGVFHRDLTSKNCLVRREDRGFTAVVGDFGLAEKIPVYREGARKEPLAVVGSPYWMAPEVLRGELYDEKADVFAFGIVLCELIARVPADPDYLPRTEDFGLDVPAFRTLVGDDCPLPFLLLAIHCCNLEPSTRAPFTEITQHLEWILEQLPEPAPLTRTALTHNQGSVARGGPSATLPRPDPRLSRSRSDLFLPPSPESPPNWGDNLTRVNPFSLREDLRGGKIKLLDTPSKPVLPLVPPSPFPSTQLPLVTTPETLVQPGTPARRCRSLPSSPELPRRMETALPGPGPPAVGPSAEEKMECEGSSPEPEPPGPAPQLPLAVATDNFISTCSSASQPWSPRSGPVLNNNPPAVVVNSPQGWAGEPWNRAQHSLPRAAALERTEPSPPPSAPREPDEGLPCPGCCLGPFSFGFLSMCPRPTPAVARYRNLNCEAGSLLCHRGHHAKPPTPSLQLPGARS

M14 = test: Antitumor activity against human M14 cells assessed as growth inhibition at 10-'5 M incubated for 48 hrs by SRB assay relative to control; assay type: functional
[8] = target: MAP kinase-activated protein kinase 3 (Homo sapiens) (UniProt Q16644); test: Inhibition of human MAPKAPK3 using KKLNRTLSVA as substrate at 20 uM in presence of [gamma-33P]-ATP incubated for 2 hrs by hotspot kinase assay relative to control
Chain of MAP kinase-activated protein kinase 3 (Homo sapiens) (Q16644 whole entry, looked up): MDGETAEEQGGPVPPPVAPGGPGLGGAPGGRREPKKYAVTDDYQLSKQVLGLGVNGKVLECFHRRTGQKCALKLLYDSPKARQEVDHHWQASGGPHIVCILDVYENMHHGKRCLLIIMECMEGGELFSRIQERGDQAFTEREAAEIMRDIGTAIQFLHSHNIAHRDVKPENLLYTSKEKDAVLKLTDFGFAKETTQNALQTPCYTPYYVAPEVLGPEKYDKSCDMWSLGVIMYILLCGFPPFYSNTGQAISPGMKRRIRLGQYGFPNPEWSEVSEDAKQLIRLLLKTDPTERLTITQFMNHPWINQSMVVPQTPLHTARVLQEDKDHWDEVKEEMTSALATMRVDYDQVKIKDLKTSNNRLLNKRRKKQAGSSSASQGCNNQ

[9] = target: Proto-oncogene tyrosine-protein kinase ROS (Homo sapiens) (UniProt P08922); test: Inhibition of human ROS/ROS1 using KKKSPGEYVNIEFG as substrate at 20 uM in presence of [gamma-33P]-ATP incubated for 2 hrs by hotspot kinase assay relative to control
Chain of Proto-oncogene tyrosine-protein kinase ROS (Homo sapiens) (P08922 whole entry): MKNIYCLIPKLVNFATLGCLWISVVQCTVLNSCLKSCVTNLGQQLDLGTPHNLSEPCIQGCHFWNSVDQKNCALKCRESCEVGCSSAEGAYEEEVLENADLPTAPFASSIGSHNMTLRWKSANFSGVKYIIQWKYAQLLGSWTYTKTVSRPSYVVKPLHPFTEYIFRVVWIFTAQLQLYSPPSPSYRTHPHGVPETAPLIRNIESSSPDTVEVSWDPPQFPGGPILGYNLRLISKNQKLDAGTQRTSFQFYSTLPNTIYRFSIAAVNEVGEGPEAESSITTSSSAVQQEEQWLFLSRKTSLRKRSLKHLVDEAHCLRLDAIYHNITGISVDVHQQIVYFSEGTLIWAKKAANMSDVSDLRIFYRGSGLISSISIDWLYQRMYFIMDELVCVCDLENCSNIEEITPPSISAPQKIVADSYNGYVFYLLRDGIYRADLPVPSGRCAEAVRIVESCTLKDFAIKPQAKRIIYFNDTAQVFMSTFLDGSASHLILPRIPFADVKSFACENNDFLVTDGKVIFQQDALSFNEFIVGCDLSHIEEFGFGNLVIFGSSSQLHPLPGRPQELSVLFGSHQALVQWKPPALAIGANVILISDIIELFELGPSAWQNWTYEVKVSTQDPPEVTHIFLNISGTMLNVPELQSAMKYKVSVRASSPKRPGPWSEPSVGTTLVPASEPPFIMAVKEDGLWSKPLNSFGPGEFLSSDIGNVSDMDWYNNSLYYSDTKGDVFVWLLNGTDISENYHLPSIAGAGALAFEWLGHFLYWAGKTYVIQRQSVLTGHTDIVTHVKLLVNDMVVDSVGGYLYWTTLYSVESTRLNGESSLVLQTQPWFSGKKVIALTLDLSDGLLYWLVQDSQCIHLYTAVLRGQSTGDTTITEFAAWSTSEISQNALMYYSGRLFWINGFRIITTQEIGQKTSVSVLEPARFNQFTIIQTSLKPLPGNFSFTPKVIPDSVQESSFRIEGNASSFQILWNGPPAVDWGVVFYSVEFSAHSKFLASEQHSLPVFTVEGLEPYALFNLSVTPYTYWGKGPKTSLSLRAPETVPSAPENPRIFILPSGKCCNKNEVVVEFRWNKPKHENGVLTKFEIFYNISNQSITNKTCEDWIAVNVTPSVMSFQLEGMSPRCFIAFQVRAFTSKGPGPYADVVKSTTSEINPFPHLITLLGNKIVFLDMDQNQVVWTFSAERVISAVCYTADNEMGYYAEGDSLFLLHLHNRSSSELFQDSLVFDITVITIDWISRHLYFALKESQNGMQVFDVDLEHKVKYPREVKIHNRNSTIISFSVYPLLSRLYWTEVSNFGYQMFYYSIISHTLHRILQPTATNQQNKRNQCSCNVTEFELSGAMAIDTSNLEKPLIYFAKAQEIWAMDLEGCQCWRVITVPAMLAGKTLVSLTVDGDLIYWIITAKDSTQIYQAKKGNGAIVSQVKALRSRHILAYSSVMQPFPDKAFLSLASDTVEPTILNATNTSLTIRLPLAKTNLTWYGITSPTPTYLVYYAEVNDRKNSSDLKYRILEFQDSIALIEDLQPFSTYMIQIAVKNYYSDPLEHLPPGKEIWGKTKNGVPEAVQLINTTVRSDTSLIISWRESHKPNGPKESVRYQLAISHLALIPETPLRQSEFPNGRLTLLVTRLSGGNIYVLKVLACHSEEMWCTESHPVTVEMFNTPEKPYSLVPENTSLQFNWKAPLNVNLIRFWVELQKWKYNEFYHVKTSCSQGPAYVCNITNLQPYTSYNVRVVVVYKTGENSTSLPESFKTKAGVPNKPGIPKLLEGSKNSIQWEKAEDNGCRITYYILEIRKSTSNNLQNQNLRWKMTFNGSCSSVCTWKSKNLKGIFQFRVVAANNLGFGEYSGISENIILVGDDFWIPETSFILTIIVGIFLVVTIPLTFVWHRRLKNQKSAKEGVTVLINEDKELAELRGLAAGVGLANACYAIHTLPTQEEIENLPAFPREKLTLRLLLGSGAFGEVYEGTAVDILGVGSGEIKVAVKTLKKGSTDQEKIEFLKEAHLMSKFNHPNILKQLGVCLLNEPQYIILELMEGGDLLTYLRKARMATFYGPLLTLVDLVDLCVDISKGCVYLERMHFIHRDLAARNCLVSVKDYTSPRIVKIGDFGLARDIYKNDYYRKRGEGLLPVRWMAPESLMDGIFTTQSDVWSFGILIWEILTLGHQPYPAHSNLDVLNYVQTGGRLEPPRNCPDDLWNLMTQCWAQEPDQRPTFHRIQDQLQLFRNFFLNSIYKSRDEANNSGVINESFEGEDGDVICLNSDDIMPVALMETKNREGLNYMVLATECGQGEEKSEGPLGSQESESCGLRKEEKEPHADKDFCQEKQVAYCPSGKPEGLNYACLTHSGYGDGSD

T1 sequence (Q96GD4 whole entry): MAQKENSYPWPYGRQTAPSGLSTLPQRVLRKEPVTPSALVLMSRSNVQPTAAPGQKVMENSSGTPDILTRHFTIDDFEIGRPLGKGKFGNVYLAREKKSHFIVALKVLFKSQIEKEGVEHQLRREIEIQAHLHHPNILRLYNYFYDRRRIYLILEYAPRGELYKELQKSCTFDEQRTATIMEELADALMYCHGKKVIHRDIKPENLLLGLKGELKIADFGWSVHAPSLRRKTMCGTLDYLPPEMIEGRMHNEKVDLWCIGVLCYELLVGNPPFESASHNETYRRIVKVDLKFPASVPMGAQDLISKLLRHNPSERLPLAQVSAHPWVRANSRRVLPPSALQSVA

CCOC(=O)c1cnc2ccc(C)cc2c1Nc1cccc(S(N)(=O)=O)c1
IC50 (Aurora kinase B [1]): 8.33 µM
inhibition (Aurora kinase B [2]): 57.7%
growth inhibition (GI) (HCT-116): >50%
growth inhibition (GI) (BT-549): >=20%
inhibition [3]: 14.9%

CCOC(=O)c1cnc2ccccc2c1Nc1cccc(S(N)(=O)=O)c1
growth inhibition (GI) (SNB-75): >=20%
IC50 (Aurora kinase B [1]): 12.5 µM
inhibition (Aurora kinase B [2]): 60.9%
growth inhibition (GI) (CAKI-1): >=20%
growth inhibition (GI) (UO-31): >=20%
IC50 (Aurora kinase A): 16.6 µM
inhibition [3]: 64.3%

CCOC(=O)c1cnc2ccc(Br)cc2c1Nc1cccc(NS(C)(=O)=O)c1
IC50 (Aurora kinase B [1]): 1.35 µM
inhibition (Aurora kinase B [2]): 91.6%
growth inhibition (GI) (UO-31): >=20%
growth inhibition (GI) (A498): >=20%
IC50 (Aurora kinase A): 1.77 µM
inhibition [3]: 66%

CCOC(=O)c1cnc2cc(Cl)cc(Cl)c2c1Nc1cccc(S(=O)(=O)NC)c1
growth inhibition (GI) (ACHN): 39%
growth inhibition (GI) (SF-268): >=25%
growth inhibition (GI) (T47D): >=25%
growth inhibition (GI) (NCI-H522): 35%
growth inhibition (GI) (NCI/ADR-RES): >=25%
growth inhibition (GI) (MCF7): 30%
IC50 (Aurora kinase B [1]): 0.09 µM
growth inhibition (GI) (PC-3): 30%
inhibition (Aurora kinase B [2]): 90.8%
growth inhibition (GI) (HT-29): >=25%
growth inhibition (GI) (786-0): >=25%
growth inhibition (GI) (UACC-62): 34%
growth inhibition (GI) (HOP-92): 53%
growth inhibition (GI) (CAKI-1): 41%
growth inhibition (GI) (SK-MEL-5): 31%
growth inhibition (GI) (KM12): 64%
growth inhibition (GI) [4]: 64%
growth inhibition (GI) (UO-31): 50%
growth inhibition (GI) (RXF 393): 33%
growth inhibition (GI) (SN12C): >=25%
growth inhibition (GI) (A498): 54%
IC50 (Aurora kinase A): 0.93 µM
inhibition of growth at 10 µM (K562): 35%
growth inhibition (GI) (HCT-15): 34%
growth inhibition (GI) (LOX IMVI): >=25%
growth inhibition (GI) (SNB-19): >=25%
growth inhibition (GI) (SR): >=25%
growth inhibition (GI) (SK-OV-3): 31%
inhibition [3]: 58.6%

CCOC(=O)c1cnc2ccc(Br)cc2c1Nc1cccc(S(N)(=O)=O)c1
growth inhibition (GI) (SNB-75): >=20%
IC50 (Aurora kinase B [1]): 1.62 µM
inhibition (Aurora kinase B [2]): 87.4%
growth inhibition (GI) (CAKI-1): >=20%
growth inhibition (GI) (A498): >=20%
inhibition [3]: 26.9%

CCOC(=O)c1cnc2cc(Cl)cc(Cl)c2c1Nc1cccc(S(N)(=O)=O)c1
inhibition [5]: 31.8%
IC50 (Aurora kinase B [1]): 6.89 µM
inhibition (Aurora kinase B [2]): 71.8%
inhibition [6]: 33.7%
growth inhibition (GI) (786-0): >50%
inhibition [7]: 4.01%
growth inhibition (GI) (HCT-116): >50%
growth inhibition (GI) (A498): >=20%
IC50 (Aurora kinase A): 7.64 µM
growth inhibition (GI) (M14): >=20%
inhibition [8]: 3.1%
inhibition [9]: 20.1%
inhibition [3]: 61.3%
